Data published in patent US20260234165A1, “MACROCYCLIC COMPOUNDS, PREPARATION METHOD THEREFOR, AND USE THEREOF” (GENFLEET THERAPEUTICS (SHANGHAI) INC., priority 2004, published 2026).
pIC50: −log10 of the molar value. Structures can show the parent of a compound that is named as a salt. Where two headings read alike, the source gives them in different places.

Columns and labels:
Assay type in all cases: cell-based, human
[1] = system: AsPC-1 cells (KRAS G12D mutation); assay: 3D cell proliferation assay (CellTiter Glo-3D), AsPC-1; conditions: medium with 2% FBS, read-out: AsPC-1 AP IC50
Description: (§1) MIA PaCa-2 cells were purchased from ATCC, Cat. No. CRL-1420; AsPC-1 cells were purchased from ATCC, Cat. No. CRL-1682; NCI-H441 cells were purchased from ATCC, Cat. No. HTB-174: NCI-H1975 cells were purchased from ATCC. Cat. No. CRL-5908; DMEM medium was purchased from Gibco, Cat. No. 11995-065: RPMI-1040 medium was purchased from Gibco. Cat. No. H 18754093; FBS was purchased from Gibco, Cat. No. 10099-141C. penicillin, streptomycin double-antibiotic solution (PS) was purchased from Gibco, Cat. No. 15140-122; Horse serum was purchased from Gibco. Cat. No. 16050130: trypsin (containing EDTA) was purchased from Gibco, Cat. No. 25200-072; DMSO was purchased from VWRAMRESCO, Cat. No. 0231-500ML; 384-well cell culture plates were purchased from Corning, Cat. No. 3830; white-bottomed, opaque 384-well assay plates were purchased from Corning, Cat. No. 3570. CellTiter Glo-3D) kit was purchased from Promega. Cat. No. G9683; cell counter was purchased from CHEMOMETEC, model: NC-200: microplate reader was purchased from PerkinElmer, model: EnVision.
(§2) MIA PaCa-2, a human pancreatic cancer cell strain endogenously containing a KRAS^G12C mutation, was cultured in a complete medium containing DMEM+10% FBS+2.5% Horse serum+1% PS. AsPC-1, a human pancreatic cancer cell strain endogenously containing a […] mutation, was cultured in a complete medium containing RPMI-1640+10% FBS+1% PS. NCI-H441 cells, a human lung cancer cell strain endogenously containing a […] mutation, were cultured in a complete medium containing RPMI-1640+10% FBS+1% PS. NCI-H1975, a KRAS wild-type human lung cancer cell strain whose cell proliferation depends on KRAS activity, was cultured in a complete medium containing RPMI-1640+10% FBS+1% PS.
(§3) The cells were digested with trypsin (containing EDTA), collected in their respective low-serum complete media containing 2% FBS (for MIA Paca-2 cell culture: DMEM+2% FBS+0.5% Horse serum+1% PS), and counted. After the cell density was adjusted as required, 200 MIA PaCa-2 cells, 800 AsPC-1 cells, 800 NCI-H441 cells, or 400 NCI-H1975 cells per well were seeded into a 384-well cell culture plate, with the volume of the medium in each well being 45 μL. The cell culture plate was incubated in an incubator at 37° C. with 5% CO2, overnight. A series of 3.16-fold gradient dilutions of a 1000× compound stock solution were prepared with DMSO, and then diluted 100-fold with the complete medium containing 2% FBS described above to give 10- compound stock solutions. On the day after cell seeding, 5 μL of the 10- compound stock solution was added to each cell culture well. As a result, the final concentration of the compound in the cell culture well became 1×, and the DMSO content in the well was 0.1%. In addition to the compound-treated wells described above, cell-containing DMSO control wells (with 5 μL of the complete medium containing 1% DMSO added to each well) and cell-free medium control wells (containing 50 μL of the complete medium with 2% FBS) were also set. The culture plate was incubated in an incubator at 37° C. with 5% CO2 for another 5 days, and then 30 μL of CellTiter-Glo working solution was added to each well. The mixture was well mixed, incubated for 30 min, left to stand at room temperature for 30 min, and then transferred to a white-bottomed, opaque 384-well assay plate at 40 μL/well. The chemiluminescence values (RLU) were measured using a microplate reader, and the cell proliferation inhibition rate for each well was calculated: IR (%)=(RLUDMSO—RLUcompound)/(RLUDMSO−RLUblank)×100%, where RLUDMSO is the average RLU signal value from the DMSO control well samples, RLUblank is the average RLU signal value from the medium control well samples, and RLUcompound is the RLU signal value from the compound-treated well samples. […]

NCI-H441 cells = assay: 3D cell proliferation assay (CellTiter Glo-3D), NCI-H441; conditions: medium with 2% FBS, read-out: H441 AP IC50
Description: as §1, §2, §3

[2] = system: p-ERK in NCI-H441 cells (KRAS G12V mutation); assay: Cell p-ERK assay (HTRF) in NCI-H441 cells; conditions: NCI-H441 cells, 3 h compound incubation, HTRF p-ERK T202/Y204, read-out: H441 p-ERK IC50
Procedure, shortened: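 IC50 values derive from four-parameter fitting of p-ERK (T202/Y204) HTRF inhibition, normalized to DMSO and blank controls. The lysates came from cells exposed for 3 h to serial 3.16-fold compound dilutions at 0.1% DMSO, after overnight plating at 10000 AsPC-1 or 20000 NCI-H441 cells per well.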

[3] = system: p-ERK in AsPC-1 cells (KRAS G12D mutation); assay: Cell p-ERK assay (HTRF) in AsPC-1 cells; conditions: AsPC-1 cells, 3 h compound incubation, HTRF p-ERK T202/Y204, read-out: AsPC-1 p-ERK IC50
Method: AsPC-1 cells were purchased from ATCC, Cat. No. CRL-1682: NCI-H441 cells were purchased from ATCC, Cat. No. HTB-174: RPMI-1640 medium was purchased from Gibco, Cat. No. I1875-093: FBS was purchased from Gibco, Cat. No. 10099-141C: penicillin/streptomycin double-antibiotic solution (PS) was purchased from Gibco, Cat. No. 15140-122: trypsin (containing EDTA) was purchased from Gibco, Cat. No. 25200-072; DMSO was purchased from VWRAMRESCO, Cat. No. 0231-500ML; 96-well cell culture plates were purchased from Corning, Cat. No. 3599: white-bottomed, opaque 96-well plates were purchased from Cisbio, Cat. No. 66PL96025; Advance ERK phospho-T202/Y204 kit was purchased from Cisbio, Cat. No. 64AERPEH; cell counter was purchased from CHEMOMETEC, model: NC-200; microplate reader was purchased from PerkinElmer, model: EnVision.
AsPC-1, a human pancreatic cancer cell strain endogenously containing a KRAS^G12D mutation, was cultured in a complete medium containing RPMI-1640+10% FBS+1% PS. NCI-H441, a human non-small cell lung cancer cell strain endogenously containing a KRAS^G12V mutation, was cultured in a complete medium containing RPMI-1640+10% FBS+1% PS.
The cells were digested with trypsin (containing EDTA), collected in their corresponding complete media, and counted. The density of the cell suspensions was adjusted with their corresponding complete media, and 10000 AsPC-1 cells or 20000 NCI-H441 cells per well were seeded into a 96-well cell culture plate, with the volume of the medium in each well being 80 μL.
The cell culture plate was incubated in an incubator at 37° C. with 5% CO2 overnight. A series of 3.16-fold gradient dilutions of a 1000- compound stock solution were prepared with DMSO, and then diluted 200-fold with the complete medium described above to give 5′ compound stock solutions. On the day after cell seeding, 20 μL of the 5× compound stock solution was added to each cell culture well. As a result, the final concentration of the compound in the cell culture well became 1×, and the DMSO content in the well was 0.1%. In addition to the compound-treated wells described above, cell-containing DMSO control wells were also set. A complete medium containing 0.5% DMSO was added at 20 μL/well. After the mixture was well mixed, the culture plate was incubated in the incubator at 37° C. with 5% CO2 for another 3 h. The medium was then removed from the culture wells, and 50 μL of cell lysis buffer (from Advance ERK phospho-T202,Y204 kit) was added to each well. The mixture was well mixed and incubated for 30 min. Then, 16 μL of the mixture was transferred to a white-bottomed, opaque 96-well assay plate, and separately, 16 μL of cell lysis buffer was added to additional wells (serving as blank wells) in the assay plate. After the transfer was completed, 4 μL of p-ERK HTRF antibody mixture (from Advance ERK phospho-T202/Y204 kit) was added to each well of the assay plate, followed by a 4-hour incubation. The HTRF signal values (RLU) were then measured using a microplate reader, and the inhibition rate of the compound against p-ERK levels was calculated as follows: IR (%)=(RLUDMSO−RLUcompound)/(RLUDMSO−RLUblank)×100%, where RLUDMSO is the average HTRF signal value from the DMSO control well samples, RLUblank is the average HTRF signal value from the blank well samples, and RLUcompound is the HTRF signal value from the compound-treated well samples. Using an XLfit software, the IR (%) values were plotted against the logarithm of the compound concentrations, and the dose-response curves were fitted using the four-parameter method to calculate the IC50 values.

[4] = 3D cell proliferation (CellTiter Glo-3D)
[5] = Homo sapiens, NCI-H441, 3D cell proliferation (CellTiter Glo-3D)

Compound	pIC50 (NCI-H441 cells; [4])	pIC50 (NCI-H441 cells; [5])	pIC50 ([2]; Homo sapiens, NCI-H441, 3 h)	pIC50 ([3]; Homo sapiens, ASPC1, 3 h)	other results
CCn1c(-c2cc(N3CCN(C)CC3)cnc2[C@H](C)OC)c2c3cc(ccc31)-c1csc(n1)C[C@H](Nc1ccccn1)C(=O)N1CCC[C@H](N1)C(=O)OCC(C)(C)C2 (atropisomer, axis not shown; (Ra)) [Compound Z69, (6^3S,Z)-1^1-ethyl-(Ra)-1^2-(2-((S)-1-methoxyethyl)-5-(4-methylpiperazin-1-yl)pyridin-3-yl)-10,10-dimethyl-4-(pyridin-2-ylamino)-6^1,6^2,6^3,6^4,6^5,6^6-hexahydro-1^1H-8-oxa-2(4,2)-thiazola-1(5,3)-indola-6(1,3)-pyridazinacycloundecaphane-5,7-dione]	6.40				pIC50 [1, 4]: 6.46
CCn1c(-c2cc(N3CCN(C)CC3)cnc2[C@H](C)OC)c2c3cc(ccc31)-c1csc(n1)C[C@H](NC1CCN(C)C1=O)C(=O)N1CCC[C@H](N1)C(=O)OCC(C)(C)C2 (atropisomer, axis not shown; (Ra)) [Compound Z70, (6^3S,4S,Z)-1^1-ethyl-(Ra)-1^2-(2-((S)-1-methoxyethyl)-5-(4-methylpiperazin-1-yl)pyridin-3-yl)-10,10-dimethyl-4-((1-methyl-2-oxopyrrolidin-3-yl)amino)-6^1,6^2,6^3,6^4,6^5,6^6-hexahydro-1^1H-8-oxa-2(4,2)-thiazola-1(5,3)-indola-6(1,3)-pyridazinacycloundecaphane-5,7-dione formate]		6.46			pIC50 ([1]; Homo sapiens, ASPC1, 3D cell proliferation (CellTiter Glo-3D)): 6.38
CCn1c(-c2cc(N3CCN(C)CC3)cnc2[C@H](C)OC)c2c3cc(ccc31)-c1csc(n1)C[C@H](Nc1cccnn1)C(=O)N1CCC[C@H](N1)C(=O)OCC(C)(C)C2 (atropisomer, axis not shown; (Ra)) [Compound Z457, (6^3S,4S,Z)-1^1-ethyl-(Ra)-1^2-(2-((S)-1-methoxyethyl)-5-(4-methylpiperazin-1-yl)pyridin-3-yl)-10,10-dimethyl-4-(pyridazin-3-ylamino)-6^1,6^2,6^3,6^4,6^5,6^6-hexahydro-1^1H-8-oxa-2(4,2)-thiazola-1(5,3)-indola-6(1,3)-pyridazinacycloundecaphane-5,7-dione]		7.56	7.58	7.04	
CCn1c(-c2cc(N3CCN4CC5(CC5)OC[C@@H]4C3)cnc2[C@H](C)OC)c2c3cc(ccc31)-c1csc(n1)C[C@H](NC(=O)[C@H]1[C@H](C)[C@@H]1C)C(=O)N1CCC[C@H](N1)C(=O)OCC1(CCC1)C2 [Compound Z467, (1r,2R,3S)—N-((3′S,4′S,Z)-1′-ethyl-2′-(2-((S)-1-methoxyethyl)-5-((S)-tetrabydro-4H-spiro[cyclopropane-1,3′-pyrazino[2,1-c][1,4]oxazin]-8′(1′H)-yl)pyridin-3-yl)-5′,7′-dioxospiro[cyclobutane-1,10′-8-oxa-2(4,2)-thiazola-1(5,3)-indola-6(1,3)-pyridazinacycloundecaphan]-4′-yl)-2,3-dimethylcyclopropane-1-carboxamide]		7.23	7.55	7.16	
(2R)—N-(5-((6^3S,4S,Z)-4-((1r, 2R,3S)-2,3-dimethylcyclopropane-1-carboxamido)-1^1-ethyl-10,10-dimethyl-5,7-dioxo-6^1,6^2,6^3,6^4,6^5,6^6-hexahydro-1^1H-8-oxa-2(4,2)-thiazola-1(5,3)-indola-6(1,3)-pyridazinacycloundecaphane-2-yl)-6-((S)-1-methoxyethyl)pyridin-3-yl)-N,1-dimethylazepane-2-carboxamide [Compound Z355]	7.26				pIC50 [2]: 7.34; pIC50 [3]: 6.96
